In patent publication US11446264B2, “Memory manipulation via modification of protein kinase C zeta activity” (THE RESEARCH FOUNDATION FOR THE STATE UNIVERSITY OF NEW YORK, priority 2017, dated 2022):

Assays:
[1] = biological target: T1, PKC zeta (Homo sapiens, UniProt Q05513); assay: kinase activity assay ([γ-32P]ATP, e-peptide substrate), PKC zeta; assay type: biochemical
T1 construct: made in house
T1 sequence (Q05513 1-592): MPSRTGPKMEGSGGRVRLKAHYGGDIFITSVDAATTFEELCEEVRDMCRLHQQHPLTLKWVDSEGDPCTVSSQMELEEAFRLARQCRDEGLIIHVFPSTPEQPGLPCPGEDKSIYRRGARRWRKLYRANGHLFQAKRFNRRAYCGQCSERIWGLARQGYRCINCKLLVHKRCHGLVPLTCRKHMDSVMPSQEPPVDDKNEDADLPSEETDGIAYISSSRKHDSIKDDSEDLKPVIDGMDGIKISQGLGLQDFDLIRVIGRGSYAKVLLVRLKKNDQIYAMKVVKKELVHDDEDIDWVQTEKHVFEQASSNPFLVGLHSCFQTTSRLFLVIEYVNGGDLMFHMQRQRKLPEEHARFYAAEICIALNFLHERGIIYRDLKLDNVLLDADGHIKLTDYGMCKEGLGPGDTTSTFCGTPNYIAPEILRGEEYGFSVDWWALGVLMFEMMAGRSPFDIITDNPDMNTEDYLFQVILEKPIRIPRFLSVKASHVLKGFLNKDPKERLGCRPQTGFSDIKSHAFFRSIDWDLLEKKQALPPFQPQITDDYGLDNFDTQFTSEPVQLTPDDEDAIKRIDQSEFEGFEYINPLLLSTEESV
Protocol: (§1) In separate experiments, PKC zeta and PKM zeta were recombinantly expressed and purified. PKC iota/lambda was purchased from ProQinase GmbH (Freiburg, Germany). The reaction mixture ([…] final volume) contained: 50 mM Tris-HCl (pH 7.4), 10 mM MgCl2, 1 mM DTT, […] e-peptide substrate (ERMRPRKRQGSVRRRV, AnaSpec, Freemont, Calif.), in the presence or absence of phosphatidylserine (5 mg/ml, Avanti Polar Lipids, Alabaster, Ala.), and PKC iota/lambda (184 ng, 0.2 pmol/min per assay) or PKM zeta (4 ng, 0.2 pmolmin-1/assay), in the presence or absence of NSA at concentrations given on the X axis. The reaction, initiated with the addition of […] (final concentration, ˜1-3 μCi [γ-32P]/assay), was for 30 min at 30° C., which is in the linear range for enzyme concentration (data not shown). The reaction was stopped by addition of […] of 100 mM cold ATP and 100 mM EDTA, and 40 ml of the reaction mixture was spotted onto phosphocellulose paper and counted by liquid scintillation. Activity was measured as the difference between counts incorporated in the presence and absence of enzyme. Autonomous kinase activity is defined as activity in the absence of phosphatidylserine. […] Thus, as disclosed herein, administering NSA inhibits activity of PKC zeta and PKM zeta.

[2] = biological target: T2, PKC iota/lambda (Homo sapiens, UniProt P41743); assay: kinase activity assay ([γ-32P]ATP, e-peptide substrate), PKC iota/lambda; assay type: biochemical; conditions: at doses up to 10 μM
T2 construct: purchased ProQinase GmbH (Freiburg, Germany)
T2 sequence (P41743 1-596): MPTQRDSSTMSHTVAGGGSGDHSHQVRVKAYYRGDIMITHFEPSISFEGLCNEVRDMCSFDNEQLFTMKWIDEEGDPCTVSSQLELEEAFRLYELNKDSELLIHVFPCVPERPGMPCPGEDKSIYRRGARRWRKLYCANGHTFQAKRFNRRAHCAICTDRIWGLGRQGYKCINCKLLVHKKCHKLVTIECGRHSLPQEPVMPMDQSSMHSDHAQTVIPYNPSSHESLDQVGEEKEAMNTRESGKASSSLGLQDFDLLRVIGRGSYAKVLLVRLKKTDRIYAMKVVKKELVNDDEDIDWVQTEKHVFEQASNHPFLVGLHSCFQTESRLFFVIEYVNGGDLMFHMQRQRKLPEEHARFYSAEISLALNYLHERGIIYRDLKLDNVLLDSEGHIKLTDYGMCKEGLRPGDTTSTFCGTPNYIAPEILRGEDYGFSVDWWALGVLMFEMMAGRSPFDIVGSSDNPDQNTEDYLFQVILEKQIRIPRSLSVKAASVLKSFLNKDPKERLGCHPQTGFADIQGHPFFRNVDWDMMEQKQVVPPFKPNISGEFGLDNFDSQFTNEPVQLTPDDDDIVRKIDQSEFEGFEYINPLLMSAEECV
Protocol: as §1

[3] = test system: hippocampal slices from wild-type mice; assay: maintenance of LTP in hippocampal slices from wild-type mice; assay type: cell-based, mouse; conditions: NSA 10 μM applied 3 h post-tetanization, FIG. 3
Protocol: (§2) Acute mouse hippocampal slices (450 μm) were dissected, bathed in ice-cold dissection buffer, and sliced with a McIlwain tissue slicer in a cold room (4° C.). The dissection buffer contained (in mM): 125 NaCl, 2.5 KCl, 1.25 NaH2PO4, 26 NaHCO3, 11 glucose, 10 MgCl2, and 0.5 CaCl2, and was bubbled with 95% O2/5% CO2 to maintain the pH at 7.4. The slices were immediately transferred into an interface recording chamber (31.5±1° C.). The recording superfusate consisted of (in mM): 118 NaCl, 3.5 KCl, 2.5 CaCl2, 1.3 MgSO4, 1.25 NaH2PO4, 24 NaHCO3, and 15 glucose, bubbled with 95% O2/5% CO2, with a flow rate of 0.5 ml/min. […] Pathway independence was confirmed by the absence of paired-pulse facilitation between the two pathways. The high-frequency stimulation consisted of standard two 100 Hz-1 s tetanic trains, at 25% of spike threshold, spaced 20 s apart, which is optimized to produce a relatively rapid onset of protein synthesis-dependent late-LTP. The maximum slope of the rise of the fEPSP is analyzed on a PC using the WinLTP data acquisition program. Application of NSA (black bar) beginning 3 hr after application of high-frequency stimulation reversed the maintenance of LTP seen during this time period, which is known to require PKC zeta/PKM zeta activity.

[4] = test system: hippocampal slices from mice lacking expression of PKC zeta/PKM zeta; assay: maintenance of LTP in hippocampal slices from PKC zeta/PKM zeta null mice; assay type: cell-based, mouse; conditions: FIG. 4
Protocol: as §2, with “activity. […]” for “activity.”

[5] = test system: wild-type mice; assay: active place avoidance, long-term memory retention, wild-type mice; assay type: in vivo, mouse; conditions: 5 nmol in 0.5 μl/hippocampus, 1 day after training, FIG. 5
Protocol: (§3) A commercial computer-controlled active place avoidance system was used (Bio-Signal Group, Acton, Mass.). The position of the mouse on a 40 cm diameter circular arena rotating at 1 rpm was determined 30 times per second by video tracking from an overhead camera (Tracker, Bio-Signal Group). All experiments used the ‘Room+Arena−’ task variant that challenges the mouse on the rotating arena to avoid a shock zone that was a stationary 60° sector. A constant current foot-shock (60 Hz, 500 ms) was delivered after entering the shock zone for 500 ms and was repeated each 1500 ms until the mouse left the shock zone. The arena rotation periodically transported the animal into the shock zone, forcing it to actively avoid the location of shock. The shock amplitude was 0.2 or 0.3 mA, which was determined for each animal in the first session to be the minimum that elicited flinch or escape responses.
(§4) A clear wall made from Polyethylene Terephtalate Glycol-modified (PET-G) prevented the animal from jumping off the elevated arena surface. […] Every 33 ms, the software determined the mouse's position, whether it was in the shock zone, and whether to deliver shock. The time series of the tracked positions was analyzed offline (TrackAnalysis, Bio-Signal Group) to extract a number of end point measures. […]

[6] = test system: PKCζ-null mice; assay: active place avoidance, long-term memory retention, PKC zeta/PKM zeta null mice; assay type: in vivo, mouse; conditions: 5 nmol in 0.5 μl/hippocampus, 1 day after training, FIG. 5
Protocol: as §3, §4

[7] = test system: wild-type mice; assay: active place avoidance, retraining and retesting in a different context after NSA; assay type: in vivo, mouse; conditions: n's=5, FIG. 6
Source text: Above, representative diagram of training protocol, similar to that described for FIG. 5. After training, memory erasure by NSA injection in hippocampus, and retention testing in one context, mice are immediately retrained and retested in a different context. NSA on relearning ([…] with repeated measurements). There is a significant interaction between the effects of treatment (control, NSA) and trials (pretraining, training, retention in two environments) (F5,40=4.41, P=0.0027). The main effect of treatment is F1,8=3.34, p=0.10. […] Thus, the effects NSA administration has on inhibiting memory are not due to generalized, permanent damage to neural substrates responsible for learning and memory.

IC50 ([1]; FIG. 2, mean±SEM, ns=3, 30 min at 30° C., read-out: IC50 as a negative modulator of PKC zeta/PKM zeta activity): 100 to 200 nM
decrease of PKC zeta/PKM zeta activity ([1]; FIG. 2, extent of decrease): approximately 50%
effect on PKC iota/lambda kinase activity [2]: without effect
memory retention of the post-injection training (different context) ([7]; retrained and retested after NSA injection in hippocampus): no effect
Structure (SMILES): O=S(=O)(O)c1cc(O)c2c(S(=O)(=O)O)cc(S(=O)(=O)O)cc2c1 [NSA, 1-naphthol-3,6,8-trisulphonic acid]
maintenance of LTP (fEPSP slope) [3]: reverses maintenance of LTP
maintenance of LTP (fEPSP slope) [4]: no effect on maintenance of LTP
retention of avoidance (time to first enter the shock zone) [5]: inhibited retention of avoidance
retention of avoidance (time to first enter the shock zone) [6]: did not affect retention testing
memory retention of the pre-injection training ([7]; NSA injection in hippocampus): disrupts memory retention
